Measured values taken from patent US6716836B2, “Non-nucleoside reverse transcriptase inhibitors” (Boehringer Ingelheim (Canada) Ltd., priority 2001, dated 2004).

Experiments:
HIV-1 RT wild type (WT) = biological target: T1, HIV-1 RT wild type (WT) (Human immunodeficiency virus type 1 group M subtype B, UniProt P04585); experiment: Reverse Transcriptase (RT) assay, wild type enzyme; format: biochemical
T1 construct: Heterodimeric RT was eluted using a descending gradient; made in house; host or cells: E. coli
Source text: (§1) Among the enzymes for which Human Immunodeficiency Virus (HIV-1) encodes is a reverse transcriptase (1), so-named because it transcribes a DNA copy from an RNA template. This activity can be quantitatively measured in a cell-free enzyme assay, which has been previously described (2), and is based upon the observation that reverse transcriptase is able to use a synthetic template poly r(C) primed with oligo d(G) to transcribe a radio-labelled, acid-precipitable DNA strand utilising ^3H-dGTP as a substrate. The assay described below utilises the wild type (WT) enzyme, which is the predominant form of the enzyme observed with patients infected with HIV-1. Utilisation of mutant RT enzymes (for example, Y181C, prepared by site-directed mutagenesis in which the tyrosine residue at codon 181 has been replaced by a cysteine residue, or the mutants K103N, V106A and Y188C) and analogous assay conditions allows compounds to be evaluated for their effectiveness at inhibiting the mutant enzymes.
(§2) The HIV-1 RT expression clone, pKRT2, was obtained from Yale University (3). An overnight culture, grown in 2×YT medium (37° C., 225 rpm) (4), supplemented with 100 μg/mL ampicillin for positive selection was used to inoculate the 2×YT medium. The culture was incubated (37° C., 225 rpm) until it reached an OD600 of 0.6-0.9. At that time, the repressor inhibitor IPTG (isopropyl P-D-thiogalactopyranoside) was added to 0.5 mM, and the mixture was incubated for an additional 2 hours.
(§3) Purification of recombinant reverse transcriptase was performed using a combination of methods previously described (5). This procedure is summarised briefly as follows: E. Coli containing RT-1 wt or RT-1 (Y181 C) were suspended in 50 mM MES, pH 6.0 containing 10% glycerol, lysed in a French press, centrifuged, and the supernates discarded. Lysate pellets were extracted with buffer A (50 mM MES, pH 6.0, 100 mM KCl, 50 mM KPi, 10% glycerol, 0.02% hexyl-β-glucoside), and re-centrifuged; nucleic acid in supernates was precipitated with 0.1% polyethylenimine. […] Bound RT was eluted with a gradient of 0 to 1.0M
(§4) (NH4)2 SO4 in buffer B. Heparin-Sepharose fractions containing RT were concentrated (Amicon YM-30 membrane), combined with equal volumes of 2.0M (NH4)2SO4 in buffer B and injected onto a 21.5×150 mm TSK Phenyl-5PW HIC HPLC column (Phenomenex). Heterodimeric RT was eluted using a descending gradient of 1.0M to 0M (NH4)2SO4 in buffer B, concentrated, and stored at 4° C.
(§5) The 2.4× concentrated stock reaction mixture was aliquoted and stored at −20° C. The mixture is stable and can be thawed for use in each assay. This enzyme assay has been adapted to a 96 well microtiter plate system, and has been previously described (6). Tris buffer (50 mM, pH 7.8), vehicle (solvent diluted to match the compound dilution), or compounds in vehicle were dispensed into 96-well microtiter plates (10 μL/well; 3 wells/compound). The HIV-1 RT enzyme was thawed, diluted in 50 mM Tris pH 7.8 containing 0.05% Chaps to give 1.5 nM enzyme and 25 μL were dispensed per well. Ten μL of 0.5M EDTA were added to the first three wells of the microtiter plate. EDTA chelates the Mg^2+ present and prevents reverse transcription. This group served as background polymerisation, which was subtracted, from all other groups. Twenty-five μl of the 2.4× reaction mixture was added to all wells and the assay was allowed to incubate at room temperature for 30 minutes. The assay was terminated by precipitating the DNA in each well with 60 μL of sodium pyrophosphate (2% w/v) in 10% trichloroacetic acid (TCA) (10% w/v). The microtiter plate was incubated for 15 minutes at 4° C. and the precipitate was harvested onto #30 glass fibre paper (Schleicher & Schuell) using a Tomtech 96-well harvester. The filters were dried, placed in plastic bags with Betaplate scintillation cocktail (Pharmacia/LKB) and counted in the Betaplate counter (Pharmacia/LKB).
(§6) The calculation for percent inhibition is as follows: [formula] […]

[1] = biological target: T2, HIV-1 RT double mutant K103N/Y181C (Human immunodeficiency virus type 1 group M subtype B, UniProt P04585, K690N/Y768C); experiment: Reverse Transcriptase (RT) assay, double mutant enzyme; format: biochemical
T2 construct: Heterodimeric RT was eluted using a descending gradient; made in house; host or cells: E. coli (inferred; the text describes only wild type and Y181C preparations)
Source text: as §1, §2, §3, §4, §5, §6

SMILES | IC50 (HIV-1 RT wild type (WT)) | IC50 [1]
CCN1c2ncc(COc3cccc4c3CS(=O)(=O)N4)cc2C(=O)N(C)c2ccc(F)nc21 [Compound 104] | > 1000 nM | 
CN1C(=O)c2cc(CCOc3cccc4c3CS(=O)(=O)N4)cnc2N(C2CC2)c2ncccc21 [Compound 105] | < 100 nM | 
Cc1cc(F)nc2c1NC(=O)c1cc(CCOc3cccc4c3CS(=O)(=O)N4)cnc1N2C1CC1 [Compound 106] | < 100 nM | 
CCN1c2ncc(COc3cccc4c3CS(=O)(=O)N4C)cc2C(=O)N(C)c2ccc(F)nc21 [Compound 107] | < 100 nM | 
CCN1c2ncc(COc3cccc4c3C(C)S(=O)(=O)N4C)cc2C(=O)N(C)c2ccc(F)nc21 (centres unmarked) [Compound 108] | 100 to 1000 nM | 
CCN1c2ncc(CCOc3cccc4c3CS(=O)(=O)N4)cc2C(=O)Nc2c(C)cc(C)nc21 [Compound 109] | < 100 nM | 100 to 1000 nM
CCN1c2ncc(CCOc3cccc4c3CS(=O)(=O)N4C)cc2C(=O)N(C)c2ccc(F)nc21 [Compound 111] | < 100 nM | < 100 nM
CCN1c2ncc(CCOc3cccc4c3CS(=O)(=O)N4C)cc2C(=O)Nc2c(C)cc(F)nc21 [Compound 112] | < 100 nM | < 100 nM
CCN1c2ncc(CCOc3cccc4c3CS(=O)(=O)N4)cc2C(=O)N(C)c2ccc(C)nc21 [Compound 113] | < 100 nM | 100 to 1000 nM
CCN1c2ncc(CCOc3cccc4c3CS(=O)(=O)N4C)cc2C(=O)N(C)c2ccc(C)nc21 [Compound 114] | < 100 nM | < 100 nM
CCN1c2ncc(CCOc3cccc4c3CS(=O)(=O)N4CC)cc2C(=O)N(C)c2ccc(C)nc21 [Compound 115] | < 100 nM | < 100 nM
CN1C(=O)c2cc(CCOc3cccc4c3CS(=O)(=O)N4C)cnc2N(C2CC2)c2ncccc21 [Compound 116] | < 100 nM | 100 to 1000 nM
Cc1cc(F)nc2c1NC(=O)c1cc(CCOc3cccc4c3CS(=O)(=O)N4C)cnc1N2C1CC1 [Compound 118] | < 100 nM | 100 to 1000 nM
Cc1cc(F)nc2c1N(C)C(=O)c1cc(CCOc3cccc4c3CS(=O)(=O)N4C)cnc1N2C1CC1 [Compound 119] | < 100 nM | 100 to 1000 nM
CCN1c2ncc(CCOc3cccc4c3CS(=O)(=O)N4)cc2C(=O)Nc2c(C)ccnc21 [Compound 120] | 100 to 1000 nM | 
CCN1c2ncc(CCOc3cccc4c3CS(=O)(=O)N4CC3CC3)cc2C(=O)Nc2c(C)ccnc21 [Compound 121] | < 100 nM | 100 to 1000 nM
CCOC(=O)N1c2cccc(OCCc3cnc4c(c3)C(=O)N(C)c3cccnc3N4CC)c2CS1(=O)=O [Compound 122] | < 100 nM | < 100 nM
CCN1c2ncc(CCOc3cccc4c3CS(=O)(=O)N4CC(=O)NO)cc2C(=O)N(C)c2cccnc21 [Compound 133] | < 100 nM | < 100 nM
CCN1c2ncc(CCOc3cccc4c3CS(=O)(=O)N4CC(=O)N(C)O)cc2C(=O)N(C)c2cccnc21 [Compound 134] | < 100 nM | < 100 nM
CCOC(=O)CCCN1c2cccc(OCCc3cnc4c(c3)C(=O)N(C)c3cccnc3N4CC)c2CS1(=O)=O [Compound 135] | < 100 nM | < 100 nM
CCN1c2ncc(CCOc3cccc4c3CS(=O)(=O)N4CC(=O)NC3CC3)cc2C(=O)N(C)c2cccnc21 [Compound 139] | < 100 nM | 100 to 1000 nM
CCNC(=O)CN1c2cccc(OCCc3cnc4c(c3)C(=O)N(C)c3cccnc3N4CC)c2CS1(=O)=O [Compound 140] | < 100 nM | < 100 nM

SMILES | IC50 (HIV-1 RT wild type (WT)) | IC50 [1]
CCN1c2ncc(CCOc3cccc4c3CS(=O)(=O)N4CCOc3ccncc3)cc2C(=O)N(C)c2cccnc21 [Compound 142] | < 100 nM | < 100 nM
CCN1c2ncc(CCOc3cccc4c3CS(=O)(=O)N4CCOc3cc[n+]([O-])cc3)cc2C(=O)N(C)c2cccnc21 [Compound 143] | < 100 nM | < 100 nM
Cc1ccnc2c1NC(=O)c1cc(CCOc3cccc4c3CS(=O)(=O)N4Cc3cc[n+]([O-])cc3)cnc1N2C1CC1 [Compound 144] | < 100 nM | 100 to 1000 nM
CCN1c2ncc(CCOc3cccc4c3CS(=O)(=O)N4Cc3cc[n+]([O-])cc3)cc2C(=O)Nc2c(C)cc(F)nc21 [Compound 145] | < 100 nM | < 100 nM
CCN1c2ncc(CCOc3cccc4c3CS(=O)(=O)N4Cc3cc[n+]([O-])cc3)cc2C(=O)Nc2c(C)cc(Cl)nc21 [Compound 146] | < 100 nM | < 100 nM
CCN1c2ncc(COc3cccc4c3CS(=O)(=O)N4Cc3cc[n+]([O-])cc3)cc2C(=O)N(C)c2ccc(F)nc21 [Compound 148] | < 100 nM | 
CCN1c2ncc(CCOc3cccc4c3C(C)(C)NS4(=O)=O)cc2C(=O)N(C)c2cccnc21 [Compound 224] | < 100 nM | 100 to 1000 nM
Cc1ccnc2c1NC(=O)c1cc(CCOc3cccc4c3C(C)(C)NS4(=O)=O)cnc1N2C1CC1 [Compound 226] | < 100 nM | > 1000 nM
CCN1c2ncc(CCOc3ccc4c(c3)CNS4(=O)=O)cc2C(=O)N(C)c2cccnc21 [Compound 301] | < 100 nM | 100 to 1000 nM
CCN1c2ncc(CCOc3ccc4c(c3)CN(C)S4(=O)=O)cc2C(=O)N(C)c2cccnc21 [Compound 303] | < 100 nM | 100 to 1000 nM
CCN1c2ncc(CCOc3ccc4c(c3)C(C)(C)NS4(=O)=O)cc2C(=O)N(C)c2cccnc21 [Compound 306] | < 100 nM | < 100 nM
CCN1c2ncc(CCOc3ccc4c(c3)C(C)(C)N(C)S4(=O)=O)cc2C(=O)N(C)c2cccnc21 [Compound 307] | < 100 nM | 100 to 1000 nM
CCN1c2ncc(CCOc3ccc4c(c3)CNS4(=O)=O)cc2C(=O)Nc2c(C)cc(F)nc21 [Compound 310] | < 100 nM | 100 to 1000 nM
CCN1c2ncc(CCOc3ccc4c(c3)CS(=O)(=O)N4)cc2C(=O)N(C)c2cccnc21 [Compound 402] | < 100 nM | > 1000 nM
CCN1c2ncc(COc3ccc4c(c3)CS(=O)(=O)N4)cc2C(=O)N(C)c2ccc(F)nc21 [Compound 404] | < 100 nM | > 1000 nM
CCN1c2ncc(CCOc3ccc4c(c3)C(C)(C)S(=O)(=O)N4)cc2C(=O)Nc2c(C)cc(F)nc21 [Compound 409] | < 100 nM | 100 to 1000 nM
CCN1c2ncc(CCOc3cccc4c3CCS(=O)(=O)N4CC(N)=O)cc2C(=O)N(C)c2cccnc21 [Compound 609] | < 100 nM | < 100 nM
CCN(CC)C(=O)N1c2cccc(OCCc3cnc4c(c3)C(=O)N(C)c3cccnc3N4CC)c2CCS1(=O)=O [Compound 610] | < 100 nM | < 100 nM
CCN1c2ncc(CCOc3cccc4c3CCS(=O)(=O)N4C(=O)N(C)OC)cc2C(=O)N(C)c2cccnc21 [Compound 611] | < 100 nM | < 100 nM
CCN(CC)CCN1c2cccc(OCCc3cnc4c(c3)C(=O)N(C)c3cccnc3N4CC)c2CCS1(=O)=O [Compound 613] | < 100 nM | < 100 nM
CCN1c2ncc(CCOc3cccc4c3CCS(=O)(=O)N4CC(=O)O)cc2C(=O)N(C)c2cccnc21 [Compound 614] | < 100 nM | < 100 nM
CCN1c2ncc(CCOc3cccc4c3C=CS(=O)(=O)N4)cc2C(=O)N(C)c2cccnc21 [Compound 808] | 100 to 1000 nM | 
